“And” between values parts separate entries of the source, which are not always exact repeats. Identical values can stand only once. “Also recorded” adds a separate entry of the source. Counter-ions that a name gives are not always drawn. Like-named read-outs stand apart in the source and are kept apart here.
Assays:
Total White Blood Cells = assay: Stability of white blood cells in whole human blood to added lipid; assay type: cell-based; design: unit not given here; conditions: 15 mM, control 6.4
Excerpt: Further testing has shown the effect of monoglyceride esters and ether on the total white blood cell concentration in whole human blood.

VSV [1] = assay: microbe, parasite or virus in culture; assay type: cell-based, vesicular stomatitis virus
VSV [2] = assay: microbe, parasite or virus in culture; assay type: cell-based, vesicular stomatitis virus strain Indiana; conditions: for minimal effective concentration: read-out: lowest concentration which reduced the VSV titer by ≥4.0 log10 units; for antiviral effect in words: fatty acids of Table 2
poliovirus = assay type: cell-based, Poliovirus type 1 strain Chat; conditions: 8 mg/ml, 37° C., 30 min; control 10^4.7 TCID50
HSV-1 = assay: microbe, parasite or virus in culture; assay type: cell-based, herpes simplex virus type 1 strain MacIntyre; conditions: 37° C., 30 min; for log reduction at 2000 µg/mL: 2 mg/ml
Visna virus = assay: microbe, parasite or virus in culture; assay type: cell-based, Visna virus strain K796; conditions: 37° C., 30 min; for log reduction at 2000 µg/mL: 2 mg/ml
VSV [3] = assay: microbe, parasite or virus in culture; assay type: cell-based, vesicular stomatitis virus; conditions: for log reduction at 5000 µM / log reduction at 10000 µM: Vesicular stomatitis virus, read-out: Log10 Reduction in VSV Titer
VSV [4] = assay: microbe, parasite or virus in culture; assay type: cell-based, vesicular stomatitis virus strain Indiana
sperm = assay: Spermicidal test: motility and viability of sperm in semen; assay type: cell-based; conditions: for coating of sperm: B, D 100 mM in semen, 30 minutes
Description: The fatty acids and derivatives thereof disclosed here are useful as spermicides and in the treatment of sexually transmitted diseases. […] Four samples tested were comprised as follows:
Five test tubes were prepared, one for each of Samples A to D and a Control. An amount of 0.5 ml of active semen was added to each test tube. Each of Samples A and B and the Control was at 37° C., and Samples C and D were at room temperature. The percentages of motility and viability were measured from 15 seconds to 5 minutes in the case of each of Samples A to D and from 15 seconds to 2 hours for the Control.

[5] = Vesicular stomatitis virus, 0.5 h, read-out: Reduction of virus titer, VSV
[6] = Vesicular stomatitis virus, 0.5 h
[7] = Human alphaherpesvirus 1, 0.5 h, read-out: Reduction of virus titer, HSV-1
[8] = Visna-maedi virus, 0.5 h, read-out: Reduction of virus titer, VV (visna virus)
[9] = 100 mM in semen, 5 min., Sample B 37° C., Sample D room temperature
[10] = 150 mM in semen, 3 min., Sample A 37° C., Sample C room temperature
[11] = 150 mM in semen, 5 min., Sample A 37° C., Sample C room temperature

Compound: CCCCCCCCCCOC[C@@H](O)CO [1-O-Decyl-sn-glycerol, 1-O-decyl-sn-glycerol]
- Total White Blood Cells (Total White Blood Cells): 1.31
- Reduction in VSV titer (VSV [1]; 5 mM, with 10 mM sodium taurocholate, human plasma, 37° 30 min): 0 Log10
- antiviral activity of MG ethers relative to esters, in words (VSV [1]; human plasma): just as effective as the naturally occurring esters

Compound: CCCCCCCC/C=C\CCCCCCCCOC[C@@H](O)CO [1-O-Oleyl-sn-glycerol, 1-O-oleyl-sn-glycerol]
- log reduction at 5000 µM (VSV [1]; Vesicular stomatitis virus, 0.5 h, read-out: Reduction in VSV Titer, 5 mM, no sodium taurocholate, human plasma, 37° 30 min): 0
- log reduction at 10000 µM (VSV [1]; Vesicular stomatitis virus, 0.5 h, read-out: Reduction in VSV Titer, 10 mM, no sodium taurocholate, human plasma, 37° 30 min): 0
- log reduction at 15000 µM (VSV [1]; Vesicular stomatitis virus, 0.5 h, read-out: Reduction in VSV Titer, 15 mM, no sodium taurocholate, human plasma, 37° 30 min): 0
- antiviral activity of MG ethers relative to esters, in words (VSV [1]; human plasma): same lack of antiviral activity as the ester

Compound: CCCCC/C=C\C/C=C\C/C=C\C/C=C\CCCC(=O)O [Arachidonic (20:4), arachidonic acid]
- log reduction at 500 µg/mL (VSV [2]; [5]): ≥ 4
- minimal effective concentration (VSV [2]; [6]): 500 µg/mL and 1600 µM
- reduction of poliovirus titer (poliovirus): did not cause a significant reduction of virus titer

Compound: CCCC(=O)O [Butyric (4:0), Butyric]
- log reduction at 10000 µg/mL (VSV [2]; [5]): 0
- antiviral effect in words (VSV [2]): no or a very small antiviral effect

Compound: CCCCCCCCCC(=O)O [Capric (10:0), Capric]
- log reduction at 4000 µg/mL (VSV [2]; [5]): ≥ 4
- minimal effective concentration (VSV [2]; [6]): 4000 µg/mL and 22000 µM
- log reduction at 4000 µg/mL (HSV-1; Human alphaherpesvirus 1, 0.5 h, 4 mg/ml, read-out: Reduction of virus titer, HSV-1): ≥ 4
- log reduction at 4000 µg/mL (Visna virus; Visna-maedi virus, 0.5 h, 4 mg/ml, read-out: Reduction of virus titer, VV (visna virus)): ≥ 3.2
- reduction of poliovirus titer (poliovirus): did not cause a significant reduction of virus titer

Compound: CCCCCC(=O)O [Caproic (6:0), Caproic]
- log reduction at 10000 µg/mL (VSV [2]; [5]): 0
- antiviral effect in words (VSV [2]): no or a very small antiviral effect

Compound: CCCCCCCC(=O)O [Caprylic (8:0), Caprylic]
- log reduction at 10000 µg/mL (VSV [2]; [5]): 1.8
- antiviral effect in words (VSV [2]): no or a very small antiviral effect
- log reduction at 10000 µg/mL (Visna virus; Visna-maedi virus, 0.5 h, 10 mg/ml, read-out: Reduction of virus titer, VV (visna virus)): ≥ 3.2

Compound: CCCCCCCC/C=C/CCCCCCCC(=O)O [Elaidic (18:1 trans), Elaidic]
- log reduction at 2000 µg/mL (VSV [2]; [5]): ≥ 4
- minimal effective concentration (VSV [2]; [6]): 2000 µg/mL and 7000 µM

Compound: CCCCCCCCCCCC(=O)OC[C@@H](O)COP(=O)([O-])OCC[N+](C)(C)C [L-α-Lysophosphatidylcholine lauroyl]
- Log10 Reduction in VSV Titer (VSV [3]): 1.7 Log10 and 2.0 Log10
- log reduction at 5000 µM (VSV [3]): 1.2
- log reduction at 10000 µM (VSV [3]): 2

Compound: CCCCCCCCCC(=O)OC[C@@H](O)COP(=O)([O-])OCC[N+](C)(C)C [L-α-lysophosphatidylcholine decanoyl]
- Log10 Reduction in VSV Titer (VSV [3]): 1.7 Log10
- log reduction at 5000 µM (VSV [3]): 1.7
- log reduction at 10000 µM (VSV [3]): 1

Compound: CC/C=C\C/C=C\C/C=C\CCCCCCCC(=O)O [Linolenic (18:3), Linolenic]
- Reduction of virus titer, VSV (VSV [2]; 1 mg/ml, 37° C., 30 min): ≥ 4.0 log10
- lowest concentration which reduced the VSV titer by ≥4.0 log10 units (VSV [2]; 37° C., 30 min): 1 mg/ml and 3.6 mM
- Reduction of virus titer, HSV-1 (HSV-1; 1 mg/ml): ≥ 4.0 log10
- Reduction of virus titer, VV (visna virus) (Visna virus; 1 mg/ml): ≥ 3.2 log10
- reduction of poliovirus titer (poliovirus): did not cause a significant reduction of virus titer

Compound: CCCCCCCC/C=C\CCCCCCCC(=O)OCC(O)CO (centres unmarked) [Monoolein (18:1), Monoolein]
- concentration with highest antiviral activity of the concentrations tested (0.5 to 4 mg/ml) (VSV [4]; VSV, 37° C., 30 min): 1.0 mg/ml and 2.8 mM
- log reduction at 1000 µg/mL (VSV [4]; [5]): 2.3

Compound: CCCCCCCC/C=C\CCCCCCCC(=O)O [Oleic (18:1 cis), Oleic]
- log reduction at 2000 µg/mL (VSV [2]; [5]): ≥ 4
- minimal effective concentration (VSV [2]; [6]): 2000 µg/mL and 7000 µM
- log reduction at 2000 µg/mL (HSV-1; [7]): ≥ 4
- log reduction at 2000 µg/mL (Visna virus; [8]): ≥ 3.2
- reduction of poliovirus titer (poliovirus): did not cause a significant reduction of virus titer

Compound: CCCCCCCCCCCCCCCC(=O)O [Palmitic (16:0), Palmitic]
- log reduction at 20000 µg/mL (VSV [2]; [5]): 1
- antiviral effect in words (VSV [2]): no or a very small antiviral effect
- log reduction at 20000 µg/mL (HSV-1; Human alphaherpesvirus 1, 0.5 h, 20 mg/ml, read-out: Reduction of virus titer, HSV-1): 1
- log reduction at 20000 µg/mL (Visna virus; Visna-maedi virus, 0.5 h, 20 mg/ml, read-out: Reduction of virus titer, VV (visna virus)): 0.7

Compound: CCCCCC/C=C\CCCCCCCC(=O)O [Palmitoleic (16:1), Palmitoleic]
- log reduction at 2000 µg/mL (VSV [2]; [5]): ≥ 4
- minimal effective concentration (VSV [2]; [6]): 2000 µg/mL and 15000 µM
- log reduction at 2000 µg/mL (HSV-1; [7]): ≥ 4
- log reduction at 2000 µg/mL (Visna virus; [8]): ≥ 3.2
- reduction of poliovirus titer (poliovirus): did not cause a significant reduction of virus titer

Compound: CCCCCCCCCCCCCCCCCC(=O)O [Stearic (18:0), Stearic]
- log reduction at 20000 µg/mL (VSV [2]; [5]): 0
- antiviral effect in words (VSV [2]): no or a very small antiviral effect

Compound: CCCCC/C=C\C/C=C\CCCCCCCC(=O)O [sodium salt of linoleic acid]
- antiviral effect in words (VSV [2]): antiviral effects similar to those of the free acids

Compound: CCCCCCCC/C=C\CCCCCCCC(=O)O [sodium salt of oleic acid]
- antiviral effect in words (VSV [2]): antiviral effects similar to those of the free acids

Compound: L-α-lysophosphatidylcholine caproyl
- Log10 Reduction in VSV Titer (VSV [3]; 5 mM, no sodium taurocholate): 0 Log10
- Log10 Reduction in VSV Titer (VSV [3]; 5 mM, with 10 mM sodium taurocholate): 0 Log10
- Log10 Reduction in VSV Titer (VSV [3]; 10 mM, no sodium taurocholate): 0 Log10
- Log10 Reduction in VSV Titer (VSV [3]; 10 mM, with 10 mM sodium taurocholate): 0 Log10
- Log10 Reduction in VSV Titer (VSV [3]; 15 mM, no sodium taurocholate): 0 Log10
- Log10 Reduction in VSV Titer (VSV [3]; 15 mM, with 10 mM sodium taurocholate): 1.0 Log10

Compound: N-dodecylsucrose
- % mot. (sperm; 100 mM in semen, 15 sec., Sample B 37° C., Sample D room temperature): 17%
- % mot. (sperm; 100 mM in semen, 30 sec., Sample B 37° C., Sample D room temperature): 9%
- % mot. (sperm; 100 mM in semen, 1 min., Sample B 37° C., Sample D room temperature): 2%
- % mot. (sperm; 100 mM in semen, 2 min., Sample B 37° C., Sample D room temperature): 0%
- % mot. (sperm; 100 mM in semen, 3 min., Sample B 37° C., Sample D room temperature): 0%
- % mot. (sperm; [9]): 0%
- % via. (sperm; [9]): 0%
- % mot. (sperm; 150 mM in semen, 15 sec., Sample A 37° C., Sample C room temperature): 0%
- % mot. (sperm; 150 mM in semen, 30 sec., Sample A 37° C., Sample C room temperature): 0%
- % mot. (sperm; 150 mM in semen, 1 min., Sample A 37° C., Sample C room temperature): 0%
- % mot. (sperm; 150 mM in semen, 2 min., Sample A 37° C., Sample C room temperature): 0%
- % mot. (sperm; [10]): 0%
- % via. (sperm; [10]): 0%
- % mot. (sperm; [11]): 0%
- % via. (sperm; [11]): 0%
- time within which 0% viability was effected (sperm; A, C 150 mM, B 100 mM in semen): ≤ 3 min
- time within which sperm cells were rendered immobile (sperm; A, C 150 mM, B 100 mM in semen): ≤ 15 s
- coating of sperm (sperm; A, C 150 mM, listed as Solution C): coated the sperm effectively; also recorded: most effective in this regard
- coating of sperm (sperm; A, C 150 mM, listed as Solution D): did not have any coating effect at all
